Drawing on PubChem BioAssay AID220 (DTP/NCI, 2004), this text covers T/C for 15 compounds.

This experiment concerns CD8F1 mice, subcutaneous mammary adenocarcinoma, T/C%. Put plainly: NCI In Vivo Anticancer Drug Screen. Data for tumor model Mammary Adenocarcinoma CD8F1 (subcutaneous) in CD8F1. The note with it: higher = larger tumour. The method in brief: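 Mice carrying transplanted tumors received test compound, and survival or tumor size was recorded. Each value is the treated-group measurement divided by the corresponding measurement in vehicle-dosed controls.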

The mark [1] stands for this setting: endpoint: median tumor weight (est.), dose: 12.5 mg/kg/injection, schedule: Q07DX005 (ip), vehicle: saline with Tween-80.
Setting [2] is: endpoint: median tumor weight (est.), dose: 25.0 mg/kg/injection, schedule: Q07DX005 (ip), vehicle: saline with Tween-80.
Setting [3] is: endpoint: median tumor weight (est.), dose: 50.0 mg/kg/injection, schedule: Q07DX005 (ip), vehicle: saline with Tween-80.
Where [4] appears, read: endpoint: median tumor weight (est.), dose: 100.0 mg/kg/injection, schedule: Q07DX005 (ip), vehicle: saline with Tween-80.
The mark [5] stands for this setting: endpoint: median tumor weight (est.), dose: 200.0 mg/kg/injection, schedule: Q07DX005 (ip), vehicle: saline with Tween-80.
Where [6] appears, read: endpoint: median tumor weight change, dose: 125.0 mg/kg/injection, schedule: Q01DX001 (ip), vehicle: saline.
[7] abbreviates: endpoint: median tumor weight change, dose: 250.0 mg/kg/injection, schedule: Q01DX001 (ip), vehicle: saline.
The mark [8] stands for this setting: endpoint: median tumor weight change, dose: 500.0 mg/kg/injection, schedule: Q01DX001 (ip), vehicle: saline.
The mark [9] stands for this setting: endpoint: median tumor weight change, dose: 1000.0 mg/kg/injection, schedule: Q01DX001 (ip), vehicle: saline.
Setting [10] is: endpoint: median tumor weight (est.), dose: 6.25 mg/kg/injection, schedule: Q07DX005 (ip), vehicle: saline with Tween-80.
Where [11] appears, read: endpoint: median tumor weight (est.), dose: 50.0 mg/kg/injection, schedule: Q07DX005 (ip), vehicle: saline.
The mark [12] stands for this setting: endpoint: median tumor weight (est.), dose: 100.0 mg/kg/injection, schedule: Q07DX005 (ip), vehicle: saline.
Setting [13] is: endpoint: median tumor weight (est.), dose: 200.0 mg/kg/injection, schedule: Q07DX005 (ip), vehicle: saline.
The mark [14] stands for this setting: endpoint: median tumor weight change, dose: 10.0 mg/kg/injection, schedule: Q01DX001 (ip), vehicle: saline with Tween-80.
Where [15] appears, read: endpoint: median tumor weight change, dose: 40.0 mg/kg/injection, schedule: Q01DX001 (ip), vehicle: saline with Tween-80.

Structures are written as SMILES. “And” between values parts separate entries of the source, which are not always exact repeats. Equal values may be shown once. Inconclusive results are not listed.

In the case of `CCOC(=O)[C@]1(Br)CC[C@@]1(Br)C(=O)OCC`, the T/C by setting is: under setting [1], 117 % of control; under setting [2], 102 % of control; under setting [3], 95 % of control; under setting [4], 112 % of control; under setting [5], 95 % of control; (endpoint: median tumor weight (est.), dose: 400.0 mg/kg/injection, schedule: Q07DX005 (ip), vehicle: saline with Tween-80) 105 % of control.

As to `O=C1CCC(=O)N1CO`, the T/C reads like this: under setting [6], 97 % of control; under setting [7], 89 % of control; under setting [8], 81 % of control; under setting [9], 75 % of control.

In the case of `CS(=O)(=O)OCCN(CCOS(C)(=O)=O)c1ccc(C=O)cc1`, the T/C is 62 % of control under setting [10]; 62 % of control and 83 % of control under setting [1]; 35 % of control under setting [2]; 85 % of control under setting [5].

`Cc1cc(C)c(-c2cc(O)c(C)cc2O)c(C)c1`: the T/C by setting is: (endpoint: median tumor weight (est.), dose: 12.5 mg/kg/injection, schedule: Q07DX005 (ip), vehicle: Klucel (hydroxypropylcellulose) (HPC)) 56 % of control; (endpoint: median tumor weight (est.), dose: 25.0 mg/kg/injection, schedule: Q07DX005 (ip), vehicle: Klucel (hydroxypropylcellulose) (HPC)) 150 % of control and 267 % of control; (endpoint: median tumor weight (est.), dose: 50.0 mg/kg/injection, schedule: Q07DX005 (ip), vehicle: Klucel (hydroxypropylcellulose) (HPC)) 81 % of control; (endpoint: median tumor weight (est.), dose: 200.0 mg/kg/injection, schedule: Q07DX005 (ip), vehicle: Klucel (hydroxypropylcellulose) (HPC)) 71 % of control; (endpoint: median tumor weight (est.), dose: 400.0 mg/kg/injection, schedule: Q07DX005 (ip), vehicle: Klucel (hydroxypropylcellulose) (HPC)) 28 % of control.

Take `O=c1n[n+]([O-])ccn1C1OC(CO)C(O)C1O` (stereo not given): the T/C by setting is: (endpoint: mean tumor weight, dose: 150.0 mg/kg/injection, schedule: Q07DX006 (ip), vehicle: saline) 175 % of control; (endpoint: mean tumor weight, dose: 150.0 mg/kg/injection, schedule: Q07DX007 (ip), vehicle: saline) 50 % of control; (endpoint: mean tumor weight, dose: 300.0 mg/kg/injection, schedule: Q07DX006 (ip), vehicle: saline) 90 % of control; (endpoint: mean tumor weight, dose: 300.0 mg/kg/injection, schedule: Q07DX007 (ip), vehicle: saline) 60 % of control; (endpoint: mean tumor weight, dose: 600.0 mg/kg/injection, schedule: Q07DX006 (ip), vehicle: saline) 33 % of control; (endpoint: mean tumor weight, dose: 600.0 mg/kg/injection, schedule: Q07DX007 (ip), vehicle: saline) 65 % of control. Besides, the T/C by setting is: under setting [11], 82 % of control; under setting [12], 93 % of control; under setting [13], 71 % of control; (endpoint: median tumor weight (est.), dose: 300.0 mg/kg/injection, schedule: Q07DX005 (ip), vehicle: saline) 101 % of control; (endpoint: median tumor weight (est.), dose: 600.0 mg/kg/injection, schedule: Q07DX005 (ip), vehicle: saline) 106 % of control.

Turning to `CCCCCCCCCCCCSC1=C(Cl)C(=O)C(OC)=C(OC)C1=O`, the T/C is 89 % of control under setting [2] and 70 % of control under setting [4].

Regarding `C(=N/NC1=NCCN1)/c1c2ccccc2c(/C=N\NC2=NCCN2)c2ccccc12`, the T/C (endpoint: median tumor weight change, dose: 25.0 mg/kg/injection, schedule: Q01DX001 (ip), vehicle: saline) is 78 % of control; the T/C (endpoint: median tumor weight change, dose: 50.0 mg/kg/injection, schedule: Q01DX001 (ip), vehicle: saline) was 101 % of control; the T/C (endpoint: median tumor weight change, dose: 100.0 mg/kg/injection, schedule: Q01DX001 (ip), vehicle: saline) was 37 % of control.

With `CC(=O)Oc1c[nH]c(=O)[nH]c1=O`, the T/C reads like this: (endpoint: median tumor weight change, dose: 125.0 mg/kg/injection, schedule: Q01DX001 (ip), vehicle: saline with Tween-80) 62 % of control; (endpoint: median tumor weight change, dose: 250.0 mg/kg/injection, schedule: Q01DX001 (ip), vehicle: saline with Tween-80) 84 % of control; (endpoint: median tumor weight change, dose: 500.0 mg/kg/injection, schedule: Q01DX001 (ip), vehicle: saline with Tween-80) 32 % of control; (endpoint: median tumor weight change, dose: 1000.0 mg/kg/injection, schedule: Q01DX001 (ip), vehicle: saline with Tween-80) 32 % of control.

As to `CN(C)CCN1C(=O)c2cccc3cc(N)cc(c23)C1=O`, the T/C runs as follows: under setting [14], 81 % of control and 92 % of control; under setting [15], 42 % of control and 44 % of control and 61 % of control.

`Cc1cn(C2CC3[O][Sn]([c]4ccccc4)([c]4ccccc4)[O]CC3O2)c(=O)[nH]c1=O` (stereo not given): the T/C is 73 % of control under setting [1]; 63 % of control (endpoint: median tumor weight (est.), dose: 12.5 mg/kg/injection, schedule: Q07DX005 (ip), vehicle: saline); 40 % of control under setting [2]; 16 % of control (endpoint: median tumor weight (est.), dose: 25.0 mg/kg/injection, schedule: Q07DX005 (ip), vehicle: saline); 67 % of control under setting [3]; 84 % of control under setting [11]. The T/C was 81 % of control under setting [4]; 49 % of control under setting [12]; 73 % of control under setting [5]; 74 % of control under setting [13]; 47 % of control (endpoint: median tumor weight (est.), dose: 500.0 mg/kg/injection, schedule: Q07DX005 (ip), vehicle: saline with Tween-80).

Turning to `CC[N+](CC)(CC)CC`, the T/C runs as follows: (endpoint: median tumor weight (est.), dose: 0.78 mg/kg/injection, schedule: Q07DX005 (ip), vehicle: saline with Tween-80) 96 % of control; (endpoint: median tumor weight (est.), dose: 1.56 mg/kg/injection, schedule: Q07DX005 (ip), vehicle: saline with Tween-80) 71 % of control and 84 % of control; (endpoint: median tumor weight (est.), dose: 3.12 mg/kg/injection, schedule: Q07DX005 (ip), vehicle: saline with Tween-80) 21 % of control and 38 % of control; under setting [10], 10 % of control and 27 % of control; (endpoint: median tumor weight change, dose: 5.0 mg/kg/injection, schedule: Q01DX001 (ip), vehicle: saline with Tween-80) 38 % of control; under setting [14], 20 % of control. Moreover, the T/C (endpoint: median tumor weight change, dose: 12.0 mg/kg/injection, schedule: Q01DX001 (ip), vehicle: saline with Tween-80) is 54 % of control and 61 % of control; the T/C (endpoint: median tumor weight change, dose: 15.0 mg/kg/injection, schedule: Q01DX001 (ip), vehicle: saline with Tween-80) was 86 % of control; the T/C (endpoint: median tumor weight change, dose: 20.0 mg/kg/injection, schedule: Q01DX001 (ip), vehicle: saline with Tween-80) is 22 % of control; the T/C (endpoint: median tumor weight change, dose: 30.0 mg/kg/injection, schedule: Q01DX001 (ip), vehicle: saline with Tween-80) is 15 % of control; the T/C under setting [15] is 8 % of control.

Consider `CC(=O)Nc1ccc(/C=N/NC(N)=S)cc1`, for which the T/C is 96 % of control (endpoint: median tumor weight change, dose: 31.25 mg/kg/injection, schedule: Q01DX001 (ip), vehicle: Klucel (hydroxypropylcellulose) (HPC)); 84 % of control (endpoint: median tumor weight change, dose: 62.5 mg/kg/injection, schedule: Q01DX001 (ip), vehicle: Klucel (hydroxypropylcellulose) (HPC)); 103 % of control (endpoint: median tumor weight change, dose: 125.0 mg/kg/injection, schedule: Q01DX001 (ip), vehicle: Klucel (hydroxypropylcellulose) (HPC)); 48 % of control (endpoint: median tumor weight change, dose: 250.0 mg/kg/injection, schedule: Q01DX001 (ip), vehicle: Klucel (hydroxypropylcellulose) (HPC)); 99 % of control (endpoint: median tumor weight change, dose: 500.0 mg/kg/injection, schedule: Q01DX001 (ip), vehicle: Klucel (hydroxypropylcellulose) (HPC)).

Turning to `CC(=O)OCC1OC(n2ncc(=O)[nH]c2=O)C(OC(C)=O)C1OC(C)=O` (stereo not given), the T/C by setting is: under setting [6], 165 % of control; under setting [7], 111 % of control; under setting [8], 162 % of control; under setting [9], 117 % of control.

Consider `O=c1c(O)c(-c2ccc(O)c(O)c2)oc2cc(O)cc(O)c12`, for which the T/C was 52 % of control (endpoint: median tumor weight (est.), dose: 25.0 mg/kg/injection, schedule: Q07DX005 (ip), vehicle: other); 114 % of control (endpoint: median tumor weight (est.), dose: 50.0 mg/kg/injection, schedule: Q07DX005 (ip), vehicle: other); 98 % of control (endpoint: median tumor weight (est.), dose: 100.0 mg/kg/injection, schedule: Q07DX005 (ip), vehicle: other); 49 % of control (endpoint: median tumor weight (est.), dose: 400.0 mg/kg/injection, schedule: Q07DX005 (ip), vehicle: other).

As for `BrCC[Se]c1ccccc1`, the T/C was 78 % of control under setting [10], 104 % of control under setting [1], 80 % of control under setting [2] and 152 % of control under setting [3].
